Assay results as given in patent US8389565B2, “Glycosidase inhibitors and methods of synthesizing same” (Simon Fraser University, priority 2000, dated 2013).
Structures can show the parent of a compound that is named as a salt. Where two headings read alike, the source gives them in different places.

Tests used:
[1] = target: T1, glucoamylase G2 form from Aspergillus niger (Aspergillus niger, UniProt P69328); test: Inhibition of glucoamylase G2-catalyzed hydrolysis of maltose; format: biochemical
T1 construct: purchased Novo Nordisk, Bagsvaerd, Denmark
Experimental: The glucoamylase G2 form from Aspergillus niger was purified from a commercial enzyme (Novo Nordisk, Bagsvaerd, Denmark) as described.^19,20 The initial rates of glucoamylase G2-catalyzed hydrolysis of maltose was tested with 1 mM maltose as substrate in 0.1 M sodium acetate pH 4.5 at 45° C. using an enzyme concentration of 7.0×10^−8 M and five inhibitor concentrations in the range 1 μm-5 mM. The effect of the inhibition on rates of substrate hydrolysis were compared for the different compounds.

[2] = target: T2, porcine pancreatic α-amylase (PPA) (Sus scrofa, UniProt P00690); test: Inhibition of porcine pancreatic α-amylase activity towards DP17 amylose; format: biochemical
T2 construct: purchased Sigma
T2 sequence (P00690 16-511): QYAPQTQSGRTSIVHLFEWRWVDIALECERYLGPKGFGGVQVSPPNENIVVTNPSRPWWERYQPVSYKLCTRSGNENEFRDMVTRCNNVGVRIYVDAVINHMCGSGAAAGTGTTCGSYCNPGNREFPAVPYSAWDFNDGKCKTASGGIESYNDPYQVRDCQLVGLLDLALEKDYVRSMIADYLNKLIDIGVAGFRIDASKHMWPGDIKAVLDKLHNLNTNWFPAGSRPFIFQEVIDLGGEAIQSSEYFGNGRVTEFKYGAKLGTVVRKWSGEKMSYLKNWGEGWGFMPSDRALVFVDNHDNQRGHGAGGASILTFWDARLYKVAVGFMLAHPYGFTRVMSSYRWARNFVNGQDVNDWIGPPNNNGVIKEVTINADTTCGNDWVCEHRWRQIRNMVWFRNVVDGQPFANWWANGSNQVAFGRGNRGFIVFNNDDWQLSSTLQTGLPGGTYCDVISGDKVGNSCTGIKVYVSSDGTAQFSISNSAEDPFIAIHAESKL
Description: (§1) Porcine pancreatic α-amylase (PPA) and bovine serum albumin (BSA) were purchased from Sigma. Amylose EX-1 (DP17; average degree of polymerization 17) was purchased from Hayashibara Chemical Laboratories (Okayama, Japan). Recombinant barley α-amylase isozyme 1 (AMY1) was produced and purified as described.^23 An aliquot of the porcine pancreatic x-amylase (PPA) crystalline suspension (in ammonium sulfate) was dialyzed extensively against the assay buffer without BSA. The enzyme concentration was determined by aid of amino acid analysis as determined using an LKB model Alpha Plus amino acid analyzer. […] Six different final inhibitor concentrations were used in the range 1 μM-5 mM. The inhibitor was pre-incubated with enzyme for 5 min at 37° C. before addition of substrate.

[3] = target: T3, Recombinant barley α-amylase isozyme 1 (AMY1) (Hordeum vulgare, UniProt P00693); test: Inhibition of barley α-amylase isozyme 1 activity towards DP17 amylose; format: biochemical
T3 construct: made in house
Description: as §1

[4] = target: T4, Human Pancreatic α-Amylase (HPA) (Homo sapiens, UniProt P04746); test: Human pancreatic α-amylase assay, hydrolysis of 2,4-Dinitrophenyl maltotrioside; format: biochemical; conditions: n.a. = not active
T4 sequence (P04746 16-511): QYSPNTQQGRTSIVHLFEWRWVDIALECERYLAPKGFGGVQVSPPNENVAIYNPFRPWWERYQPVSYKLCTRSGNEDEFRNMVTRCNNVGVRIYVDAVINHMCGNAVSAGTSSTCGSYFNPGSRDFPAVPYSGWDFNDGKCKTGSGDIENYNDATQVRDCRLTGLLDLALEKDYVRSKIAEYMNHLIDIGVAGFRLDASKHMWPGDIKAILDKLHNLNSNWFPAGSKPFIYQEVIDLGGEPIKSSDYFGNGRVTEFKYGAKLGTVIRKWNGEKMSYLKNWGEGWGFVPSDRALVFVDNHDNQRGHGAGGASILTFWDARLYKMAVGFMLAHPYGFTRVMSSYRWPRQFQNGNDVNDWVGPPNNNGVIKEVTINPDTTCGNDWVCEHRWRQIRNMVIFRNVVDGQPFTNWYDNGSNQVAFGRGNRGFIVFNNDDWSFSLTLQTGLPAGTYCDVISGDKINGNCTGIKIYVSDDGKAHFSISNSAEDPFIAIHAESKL
Experimental: These assays were performed with purified enzyme. The ability of candidate inhibitors to inhibit the hydrolysis of 2,4-Dinitrophenyl maltotrioside was monitored by UV-visible spectroscopy of the released 2,4-dinitrophenol.

[5] = Stability on storage in aqueous solution; format: physicochemical
[6] = target: Maltase Glucoamylase (MGA) (Homo sapiens, UniProt O43451); test: MGA activity in extracts of COS cells transfected with MGA5′ (maltase subunit) construct, maltose hydrolysis, glucose oxidase colorimetric assay; format: biochemical; parameters: COS cells transfected with MGA5′ (maltase subunit clone 10) construct were used; expressed in transfected cells; host or cells: COS cells; conditions: for Ki MGA (Human intestinal maltase glucoamylase): only the order of magnitude of activity (nM, μM, mM) or n.a. = not active
Experimental: In the assays, COS cells transfected with MGA5′ (maltase subunit clone 10) construct were used. Activity measurements were performed with cell extracts containing MGA. Maltose hydrolysis was monitored by measurement of the glucose released by a glucose oxidase colorimetric assay. Inhibition of this hydrolysis was measured as a reduction in OD reading.
In practice, an OD reading in the absence of the inhibitor was recorded, followed by a reading in the presence of the inhibitor. The percent reduction in OD reading upon administering a candidate inhibitor (see Table 11) was then correlated with a percent inhibition for a given concentration.

[7] = test system: maltase activity in biopsies with live intestinal cells; test: Maltase activity in biopsies with live intestinal cells; format: cell-based, human; conditions: 5 μM concentration
Description: • 1) It appears that Acarbose acts principally by inhibiting human pancreatic α-amylase (HPA) and the breakdown of starch.

Sprague-Dawley rats = test: In vivo maltose gavage in catheterized rats: plasma glucose and insulin; parameters: species or system rat; conditions: maltose gavage 1000 mg/kg with 25 mg/kg drug; for 15 minute glucose excursion from basal: mean ± SE, n=6; for decrease of the 90 minute insulin AUC: versus Control
Experimental: Five week old Sprague-Dawley rats were housed singly under a 12:12-h light-dark photoperiod and given free access to water and rat chow (Purina rodent chow). After one week of acclimation, chronic indwelling catheters were implanted.
Animals were anesthetized with a combination of Ketamine-Xylazine-Butorphanol (0.1 ml/100 g im). Analgesic (Butorphenol, 1 mg/kg sc) was administered following recovery from anesthesia and the following morning. Antibiotic was administered by one dose sc and in the drinking water for 4 days post-operative (Baytril, 5 mg/kg sc, Bayer, Toronto, Canada; Baytril, 50 mg/ml: 0.36 ml solution in 250 ml drinking water). A sterile catheter (Intramedic PE-50 with ˜3 cm beveled Silastic tip) was placed in the left carotid artery and the distal end of the catheter was tunneled subcutaneously, exteriorized, and anchored at the nape of the neck. The catheters were protected from chewing by a stainless steel tether connected to a swivel system which allowed free movement of the animal and easy access to the catheter by the investigator.
The animals were allowed to recover for 1 week. Experiments were performed on conscious, unrestrained animals that had been fasted overnight by removal of chow from the cage hoppers at 2100. At 0800 the following morning animals were weighed and Atropine (0.05 mg/kg sc) was administered as a […]. At baseline, animals were administered a bolus of maltose by oral gavage (1000 mg/kg body weight) with or without drug (25 mg/kg body weight for all agents). Blood samples (0.1 mL) were taken via the implanted carotid line at -15 and -5 min for the baseline and at 7, 15, 30, 60, 90, 120, 210, 300 min.
Blood samples were kept on ice in microcentrifuge tubes and then were centrifuged. The plasma was stored at −20° C. until it was assayed. Plasma volume was triple replaced with heparinized saline (10u/mL), but red blood cells were not reinfused. Plasma glucose was assayed with the glucose oxidase method (Trinder RAICHEM Division of Hemagen Diagnostics, Inc. San Diego, Calif.). Plasma insulin concentrations were measured by rat insulin ELISA (Crystal Chem INC, Downers Grove, Ill.). Six experiments were performed for each treatment (control, Blintol, Acarbose, Salacinol).
All data are presented as means±SE. The significance of changes in plasma glucose and insulin were tested by two-way repeated-measures analysis of variance and were performed with the Statistical Analysis System for Windows (version 6.3, SAS Institute, Cary, N.C.). AUCs were compared using unpaired t-tests.

[8] = read-out: Ki PPA (Porcine pancreatic α-amylase)
[9] = read-out: Ki AMY1 (Barley α-amylase)

T1 sequence (P69328 other isoform, or with tags, fused parts or gaps): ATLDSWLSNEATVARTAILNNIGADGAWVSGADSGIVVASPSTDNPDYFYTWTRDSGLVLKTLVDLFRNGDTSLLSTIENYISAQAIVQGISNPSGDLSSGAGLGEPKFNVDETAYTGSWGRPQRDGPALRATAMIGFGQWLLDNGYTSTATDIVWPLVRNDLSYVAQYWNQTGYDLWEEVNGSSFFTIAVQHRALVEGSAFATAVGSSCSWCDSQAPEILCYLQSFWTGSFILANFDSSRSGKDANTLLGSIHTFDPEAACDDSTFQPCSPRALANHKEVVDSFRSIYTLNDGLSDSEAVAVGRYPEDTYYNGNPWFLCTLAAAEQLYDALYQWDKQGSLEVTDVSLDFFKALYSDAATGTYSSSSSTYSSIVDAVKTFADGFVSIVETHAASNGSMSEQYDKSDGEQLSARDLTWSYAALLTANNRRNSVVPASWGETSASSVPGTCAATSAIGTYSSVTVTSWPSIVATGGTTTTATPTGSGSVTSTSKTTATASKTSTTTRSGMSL
T3 sequence (P00693 25-438): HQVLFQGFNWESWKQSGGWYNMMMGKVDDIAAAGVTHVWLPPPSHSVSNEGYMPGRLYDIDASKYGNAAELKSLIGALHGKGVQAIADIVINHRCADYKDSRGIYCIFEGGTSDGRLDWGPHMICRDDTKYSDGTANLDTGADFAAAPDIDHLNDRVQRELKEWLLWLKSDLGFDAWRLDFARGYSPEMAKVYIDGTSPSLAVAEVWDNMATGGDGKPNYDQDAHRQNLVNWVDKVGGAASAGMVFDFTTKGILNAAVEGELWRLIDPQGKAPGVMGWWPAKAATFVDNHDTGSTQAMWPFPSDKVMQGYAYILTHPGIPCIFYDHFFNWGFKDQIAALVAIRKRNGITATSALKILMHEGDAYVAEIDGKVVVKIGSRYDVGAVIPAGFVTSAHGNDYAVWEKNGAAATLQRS
Chain of Maltase Glucoamylase (MGA) (O43451 356-737 limits assumed): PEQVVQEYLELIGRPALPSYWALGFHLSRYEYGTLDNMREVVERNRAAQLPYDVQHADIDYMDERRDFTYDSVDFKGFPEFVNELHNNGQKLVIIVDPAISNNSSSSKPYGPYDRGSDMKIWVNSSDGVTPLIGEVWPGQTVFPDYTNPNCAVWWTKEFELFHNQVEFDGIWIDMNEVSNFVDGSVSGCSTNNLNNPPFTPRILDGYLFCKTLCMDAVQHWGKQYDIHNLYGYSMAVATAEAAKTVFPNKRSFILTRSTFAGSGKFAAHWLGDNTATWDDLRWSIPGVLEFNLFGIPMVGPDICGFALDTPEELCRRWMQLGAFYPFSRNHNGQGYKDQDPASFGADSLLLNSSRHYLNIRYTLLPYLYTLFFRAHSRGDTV

SMILES: O=S(=O)([O-])O[C@H](CO)[C@@H](O)C[S@@+]1C[C@H](O)[C@@H](O)[C@@H]1CO
- Ki [1]: 2.17 mM
- Ki [2, 8]: > 5 mM
- Ki [3, 9]: > 5 mM

SMILES: O=S(=O)([O-])O[C@H](CO)[C@@H](O)C[Se+]1C[C@@H](O)[C@H](O)[C@@H](O)C1 (some centres unmarked)
- Ki [4]: > 5 mM

SMILES: O=S(=O)(O)O[C@H](CO)[C@@H](O)CN1C[C@H](O)[C@@H](O)[C@H](O)[C@H]1CO [Compound 67b, 1,5-Dideoxy-1,5-[[N-(2R,RS)-2,4-dihydroxy-3-(sulfooxy)-butyl]iminoonium]-D-glucitol]
- stability of the 3′-sulfate ester on storage ([5]; D2O/NaOD at pH>10, 2 days at ambient temperature): completely hydrolyzed

SMILES: O=S(=O)([O-])O[C@@H](CO)[C@H](O)C[Se@+]1C[C@@H](O)[C@H](O)[C@H]1CO
- Ki [2]: > 5 mM
- Ki [3]: > 5 mM
- Ki [4]: > 5 mM
- Ki MGA (Human intestinal maltase glucoamylase) [6]: nM

SMILES: OC1C[S+]2CCCC2[C@@H](O)C1O (some centres unmarked)
- Ki ([1]; read-out: Ki GA (Glucoamylase)): 1.32 mM
- Ki [2, 8]: > 5 mM
- Ki [3, 9]: > 5 mM

SMILES: O=S(=O)([O-])OC(CO)C(O)C[Se+]1CC(O)C(O)C1CO [Blintol, 1,4-Dideoxy-1,4-[[(2S,3S)-2,4-dihydroxy-3-(sulfooxy)butyl]episelenoniumylidene]-D-arabinitol Inner Salt]
- percent inhibition of maltase activity [7]: 50%
- time at which insulin values were different from basal (Sprague-Dawley rats): 15 min
- time at which plasma glucose returned to basal (Sprague-Dawley rats): 60 min
- 15 minute glucose excursion from basal (Sprague-Dawley rats): 29.3 ± 6.5 mg/dL
- decrease of the 90 minute insulin AUC (Sprague-Dawley rats): 53%
- IC50 [6]: 0.0002 mM

SMILES: O=S(=O)([O-])O[C@@H](CO)[C@H](O)C[S@+]1C[C@@H](O)[C@H](O)[C@H]1CO
- Ki [1]: 1.71 mM
- Ki [2, 8]: 0.01 mM
- Ki [3, 9]: 0.015 mM
- Ki [4]: 0.075 mM

SMILES: O=S(=O)([O-])O[C@H](CO)[C@@H](O)C[Se@+]1C[C@@H](O)[C@H](O)[C@H]1CO
- Ki ([1]; read-out: Ki GA (Glucoamylase)): > 9 mM
- Ki [2]: > 5 mM
- Ki [3]: > 5 mM

SMILES: O=S(=O)([O-])O[C@H](CO)[C@@H](O)C[S@+]1C[C@@H](O)[C@H](O)[C@@H](O)C1
- Ki [4]: > 5 mM
- Ki MGA (Human intestinal maltase glucoamylase) [6]: mM

SMILES: O=S(=O)(O)O[C@H](CO)[C@@H](O)CN1C[C@H](O)[C@@H](O)[C@@H]1CO
- Ki ([1]; read-out: Ki GA (Glucoamylase)): > 8 mM
- Ki [2, 8]: > 5 mM
- Ki [3, 9]: > 5 mM
- Ki [4]: 0.4 mM

SMILES: O=S(=O)([O-])O[C@H](CO)[C@@H](O)C[S@@+]1C[C@@H](O)[C@H](O)[C@@H](O)C1
- Ki [4]: > 5 mM

SMILES: C[C@H]1O[C@H](O[C@H]2[C@H](O)[C@@H](O)[C@@H](O[C@H]3[C@H](O)[C@@H](O)C(O)O[C@@H]3CO)O[C@@H]2CO)[C@H](O)[C@@H](O)[C@@H]1N[C@H]1C=C(CO)[C@@H](O)[C@H](O)[C@H]1O (some centres unmarked) [Acarbose]
- time at which plasma glucose returned to basal (Sprague-Dawley rats): 90 min
- 15 minute glucose excursion from basal (Sprague-Dawley rats): 34.2 ± 3.5 mg/dL
- decrease of the 90 minute insulin AUC (Sprague-Dawley rats): 49%
- inhibition at 5 µM ([6]; 5 μM concentration, COS cell extracts containing MGA, read-out: percent inhibition of the breakdown of maltose): 4%

SMILES: O=S(=O)([O-])O[C@H](CO)[C@@H](O)C[S@+]1C[C@@H](O)[C@H](O)[C@H]1CO
- Ki [1]: 1.06 mM
- Ki [2, 8]: > 5 mM
- Ki [3, 9]: > 5 mM

SMILES: O=S(=O)(O)O[C@@H](CO)[C@H](O)CN1C[C@@H](O)[C@H](O)[C@H]1CO
- Ki ([1]; read-out: Ki GA (Glucoamylase)): > 2.5 mM
- Ki [2, 8]: > 5 mM
- Ki [3, 9]: > 5 mM
- Ki MGA (Human intestinal maltase glucoamylase) [6]: mM

SMILES: O=S(=O)(O)O[C@@H](CO)[C@H](O)CN1C[C@H](O)[C@@H](O)[C@H]1CO
- Ki ([1]; read-out: Ki GA (Glucoamylase)): > 30 mM
- Ki [2, 8]: > 5 mM
- Ki [3, 9]: > 5 mM

SMILES: O=S(=O)([O-])O[C@H]1[C@H](O)C(O)O[C@@H]1C[S@+]1C[C@@H](O)[C@H](O)[C@H]1CO (stereo partly drawn) [Compound 101, 3-O-sulfoxy-5-deoxy-5-[1,4-dideoxy-1,4-episufoniumylidene-D-arabinitol]-α/β-D-arabinose inner salt]
- stability on storage in aqueous solution ([5]; aqueous solution, several days at ambient temperature): unchanged

SMILES: O=S(=O)([O-])O[C@@H](CO)[C@H](O)C[S@+]1C[C@H](O)[C@@H](O)[C@H]1CO
- Ki [1]: > 5 mM
- Ki [2, 8]: 0.052 mM
- Ki [3, 9]: 0.109 mM
